Among the test systems are MOLT-4 leukemia; EKVX NSCLC; NCI-H23 lung; SK-MEL-28 melanoma; IGROV1 ovarian; MCF7 breast; NCI-H460 lung; T-47D breast; 786-0 renal; OVCAR-4 ovarian.
Common to all, as to assay: NCI tumour cell line growth inhibition, 48 h

Drawing on PubChem BioAssay (NCI), this text covers GI50 and TGI for nine compounds.

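Exposure lasted 48 hours, with cells grown in 96-well plates and compounds tested at five concentrations. The concentration for 50% growth inhibition is given as GI50. Definition used: TGI = concentration required for complete inhibition of growth.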 A value given as a limit tells only on which side of the number the result lay.

On to `Oc1c(Cl)cc(Cl)c2cccnc12`, for which the GI50 was 3.41 µM in the experiment on MOLT-4 leukemia; 2.9 µM in the experiment with EKVX NSCLC; 4.2 µM with NCI-H23 lung; 3.96 µM with SK-MEL-28 melanoma; 3.72 µM with IGROV1 ovarian; 3.75 µM in the experiment with MCF7 breast. Moreover, the GI50 in the experiment on NCI-H460 lung is 1.87 µM; in the experiment with T-47D breast it was 2.35 µM; in the experiment on 786-0 renal, 3.29 µM; in the experiment with OVCAR-4 ovarian, 2.32 µM. Besides, the TGI in the experiment with MOLT-4 leukemia stood at 17.8 µM; in the experiment on EKVX NSCLC it was 15.2 µM; with NCI-H23 lung, 42.5 µM; with SK-MEL-28 melanoma, 29.4 µM; in the experiment on IGROV1 ovarian it was 18.8 µM; in the experiment with MCF7 breast, 13.8 µM. In addition, the TGI in the experiment with NCI-H460 lung worked out at 6.9 µM; in the experiment with T-47D breast it was 12 µM; in the experiment with 786-0 renal it was 11.8 µM; in the experiment with OVCAR-4 ovarian it was 7.85 µM.

In the case of `N#CC(C#N)=C(N)/C(C#N)=C/c1ccc2[nH]ccc2c1`, the TGI in the experiment on MOLT-4 leukemia, with EKVX NSCLC, with NCI-H23 lung, with SK-MEL-28 melanoma, with IGROV1 ovarian and in the experiment on MCF7 breast was greater than 100 µM in each case. Further, the TGI with NCI-H460 lung, in the experiment with T-47D breast, in the experiment with 786-0 renal and in the experiment with OVCAR-4 ovarian was greater than 100 µM each time.

`CC(=O)O.CC(=O)O.CC(=O)O.CC(=O)O.[Rh].[Rh]`: the GI50 with MOLT-4 leukemia is 22.6 µM; with EKVX NSCLC it was 20.7 µM; with NCI-H23 lung, 32.1 µM; with SK-MEL-28 melanoma it was 32.3 µM; in the experiment on IGROV1 ovarian, 34 µM; in the experiment on MCF7 breast, 27.2 µM. Further, the GI50 in the experiment on NCI-H460 lung was 37.4 µM; with T-47D breast, 14.9 µM; in the experiment with 786-0 renal, 34.8 µM; in the experiment with OVCAR-4 ovarian, 37 µM. The TGI with MOLT-4 leukemia was 47 µM; in the experiment with EKVX NSCLC, 44.1 µM; in the experiment on NCI-H23 lung, greater than 100 µM; in the experiment on SK-MEL-28 melanoma it was 93.8 µM; with IGROV1 ovarian, 91.1 µM; with MCF7 breast, greater than 100 µM. Besides, the TGI with NCI-H460 lung, in the experiment on T-47D breast, in the experiment on 786-0 renal and with OVCAR-4 ovarian was greater than 100 µM throughout.

For the compound `COc1cc2c(c(OC)c1OC)-c1c(cc3c(c1OC)OCO3)CC(C)C(C)(O)C2OC(=O)c1ccccc1` (stereo not given), the TGI in the experiment with MOLT-4 leukemia is 29.3 µM; in the experiment with EKVX NSCLC, greater than 100 µM; in the experiment with NCI-H23 lung it was greater than 100 µM; with SK-MEL-28 melanoma, greater than 100 µM; in the experiment with IGROV1 ovarian it was greater than 100 µM; in the experiment with MCF7 breast it was greater than 100 µM. The TGI in the experiment with NCI-H460 lung, in the experiment with T-47D breast, in the experiment with 786-0 renal and with OVCAR-4 ovarian was greater than 100 µM throughout.

As to `O=NN(CCCl)C(=O)NC1CCC(=O)NC1=O` (stereo not given), the TGI is 329 µM in the experiment with MOLT-4 leukemia; 515 µM with EKVX NSCLC; 842 µM in the experiment on NCI-H23 lung; 1030 µM with SK-MEL-28 melanoma; 1140 µM with IGROV1 ovarian; greater than 1190 µM in the experiment on MCF7 breast. Besides, the TGI was 463 µM in the experiment with NCI-H460 lung, 892 µM with T-47D breast, 377 µM in the experiment with 786-0 renal and greater than 993 µM in the experiment on OVCAR-4 ovarian.

For `O=c1c(-c2ccccc2)coc2cc(OC/C(=N/O)c3ccc(F)cc3)ccc12`, the GI50 is 24 µM in the experiment on MOLT-4 leukemia; 8.59 µM in the experiment on EKVX NSCLC; 19.3 µM in the experiment on NCI-H23 lung; 19.2 µM in the experiment with SK-MEL-28 melanoma; 19.9 µM in the experiment on IGROV1 ovarian; 25.9 µM in the experiment with MCF7 breast. The GI50 was 17.4 µM in the experiment with NCI-H460 lung, 7.87 µM in the experiment with T-47D breast, 19.3 µM in the experiment on 786-0 renal and 13.7 µM with OVCAR-4 ovarian. Also, the TGI with MOLT-4 leukemia was greater than 100 µM; in the experiment with EKVX NSCLC it was 26.1 µM; in the experiment with NCI-H23 lung, 42.1 µM; in the experiment with SK-MEL-28 melanoma it was greater than 100 µM; in the experiment on IGROV1 ovarian, greater than 100 µM; with MCF7 breast it was greater than 100 µM. Besides, the TGI came to 38.2 µM with NCI-H460 lung, 68.5 µM with T-47D breast, 41.8 µM in the experiment with 786-0 renal and 59.3 µM in the experiment with OVCAR-4 ovarian.

Regarding `CCN(CC)CCCC(C)Nc1c(-c2ccccc2)cnc2cc(Cl)ccc12` (stereo not given), the GI50 was 4.38 µM in the experiment with MOLT-4 leukemia; 7.58 µM in the experiment on EKVX NSCLC; 11 µM in the experiment with NCI-H23 lung; 1.82 µM in the experiment with SK-MEL-28 melanoma; 11.8 µM in the experiment with IGROV1 ovarian; 4.54 µM in the experiment on MCF7 breast. Moreover, the GI50 with NCI-H460 lung was 6.99 µM; in the experiment with T-47D breast, 4.44 µM; in the experiment on 786-0 renal it was 6.38 µM; in the experiment on OVCAR-4 ovarian, 10.3 µM. Further, the TGI with MOLT-4 leukemia was 31.9 µM; in the experiment with EKVX NSCLC, 40.7 µM; in the experiment on NCI-H23 lung, 28.5 µM; in the experiment with SK-MEL-28 melanoma, 3.55 µM; in the experiment with IGROV1 ovarian, 31.4 µM; in the experiment with MCF7 breast, 17.7 µM. For the same compound, the TGI came to 19.8 µM in the experiment on NCI-H460 lung, 16.2 µM in the experiment with T-47D breast, 20.6 µM in the experiment on 786-0 renal and 36.4 µM with OVCAR-4 ovarian.

Consider `Cc1cc(NC(=O)c2cnc(N3CCN(CCOCCOCCOCCOCCC(=O)N[C@H](C(=O)N4C[C@H](O)C[C@H]4C(=O)N[C@@H](C)c4ccc(-c5scnc5C)cc4)C(C)(C)C)CC3)cn2)c2ncccc2c1`, for which the GI50 is 3.12 µM with MOLT-4 leukemia; 4.9 µM with EKVX NSCLC; 3.57 µM in the experiment with NCI-H23 lung; 2.54 µM with SK-MEL-28 melanoma; 2.39 µM in the experiment on IGROV1 ovarian; 3.14 µM with MCF7 breast. Besides, the GI50 was 3.37 µM in the experiment with NCI-H460 lung, 3.03 µM in the experiment on T-47D breast, 4.61 µM in the experiment on 786-0 renal and 4.49 µM in the experiment with OVCAR-4 ovarian. In addition, the TGI with MOLT-4 leukemia was 9.67 µM; with EKVX NSCLC, greater than 100 µM; in the experiment on NCI-H23 lung, 15.8 µM; with SK-MEL-28 melanoma, 6.7 µM; with IGROV1 ovarian, 8.17 µM; in the experiment on MCF7 breast it was greater than 100 µM. Moreover, the TGI was 11 µM in the experiment with NCI-H460 lung, 17.9 µM in the experiment on T-47D breast, greater than 100 µM in the experiment on 786-0 renal and 25 µM with OVCAR-4 ovarian.

For `O=C(O)COc1ccc(C(=O)/C(SS/C(C(=O)c2ccc(OCC(=O)O)c(Cl)c2Cl)=C2\C=C(c3ccc(Br)cc3)SS2)=C2/C=C(c3ccc(Br)cc3)SS2)c(Cl)c1Cl`, the TGI in the experiment with MOLT-4 leukemia was 15 µM; with EKVX NSCLC it was greater than 100 µM; in the experiment with NCI-H23 lung it was 21.3 µM; in the experiment on SK-MEL-28 melanoma it was greater than 100 µM; in the experiment with IGROV1 ovarian it was 23.1 µM; in the experiment on MCF7 breast, 13.2 µM. For the same compound, the TGI was greater than 71.8 µM in the experiment on NCI-H460 lung, 8.61 µM in the experiment on T-47D breast, greater than 45.3 µM in the experiment on 786-0 renal and greater than 50.1 µM in the experiment with OVCAR-4 ovarian.
